Consider 21 compounds from ChEMBL document CHEMBL1130927, “Novel imidazole derivatives with subtype-selective antimuscarinic activity (2)” (Bioorg Med Chem Lett, 1998).

Test [1] concerns the target Muscarinic acetylcholine receptor M3 (Cavia porcellus) (UniProt Q8VH26). As to the kind of experiment: Antimuscarinic activity against M3 receptor of guinea pig ileum. The test is classed as tissue-based.
Test [2] has as its system Muscarinic acetylcholine receptors; M2 & M3. As to the kind of experiment: Selectivity ratio was calculated between Kb values at M2 and M3 muscarinic receptors. The test is classed as protein assay. Particulars: Cavia porcellus.
Test [3] deals with Muscarinic acetylcholine receptor M2 (Cavia porcellus). As to the kind of experiment: Antimuscarinic activity against M2 receptor of guinea pig atrium. The following applies: Cardiac atrium.

Bounds are passed on as bounds.

Muscarinic acetylcholine receptor M3 (Cavia porcellus), sequence (Q8VH26 1-587): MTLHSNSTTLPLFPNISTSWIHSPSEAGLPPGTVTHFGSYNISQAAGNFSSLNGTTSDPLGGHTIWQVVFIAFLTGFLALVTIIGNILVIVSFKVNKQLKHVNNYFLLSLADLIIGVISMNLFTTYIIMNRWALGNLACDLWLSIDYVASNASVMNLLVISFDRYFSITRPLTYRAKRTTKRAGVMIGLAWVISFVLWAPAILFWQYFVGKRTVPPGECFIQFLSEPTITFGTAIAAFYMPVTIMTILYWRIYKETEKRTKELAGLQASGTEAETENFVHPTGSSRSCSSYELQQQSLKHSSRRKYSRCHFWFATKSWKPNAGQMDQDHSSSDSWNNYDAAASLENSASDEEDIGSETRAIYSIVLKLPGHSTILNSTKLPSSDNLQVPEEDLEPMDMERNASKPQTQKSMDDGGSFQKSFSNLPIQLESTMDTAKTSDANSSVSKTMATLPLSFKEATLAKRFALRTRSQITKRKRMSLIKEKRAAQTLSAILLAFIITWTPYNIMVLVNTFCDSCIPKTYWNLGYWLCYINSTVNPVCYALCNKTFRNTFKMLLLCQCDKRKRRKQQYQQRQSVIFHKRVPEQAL

The compound `Cc1nccn1CCC(C(N)=O)(c1ccccc1)C(C)C` (stereo unspecified) gave a Kb in test [1] of 394 nM.

In turn, `COC(=O)C(CCn1ccnc1C)(c1ccccc1)c1ccccc1` returned a Kb in test [1] above 1000 nM.

Regarding `Cc1nccn1CCCC(C(N)=O)(c1ccccc1)c1ccccc1`, the Kb in test [1] is 1.14 nM; in test [3] it was 20.1 nM. The Ratio in test [2] was 17.6.

As to `Cc1nccn1CCC(O)(c1ccccc1)c1ccccc1`, the Kb in test [1] was found to be 16.7 nM; in test [3] it was 50.1 nM. Further, the Ratio in test [2] is 3.

On to `Cc1nccn1CCCCCC(C(N)=O)(c1ccccc1)c1ccccc1`, for which the Kb came out at 71.3 nM in test [1] and 710 nM in test [3]. Further, in test [2], the Ratio is 9.96.

With `Cc1ccc(C(CCn2ccnc2C)(C(N)=O)c2ccccc2)cc1` (stereo unspecified), the Kb in test [1] amounted to 24.6 nM; in test [3], 743 nM. The Ratio in test [2] was 30.3.

As to `CNC(=O)C(CCn1ccnc1C)(c1ccccc1)c1ccccc1`, the Kb came out at 5150 nM in test [1] and 5870 nM in test [3]. Besides, the Ratio in test [2] was 1.14.

As for `Cc1nccn1C(C)CC(C(N)=O)(c1ccccc1)c1ccccc1` (stereo unspecified), the Kb was 16.9 nM in test [1] and 174 nM in test [3]. In addition, the Ratio in test [2] is 10.3.

`Cc1nccn1CCC(C(N)=O)C1c2ccccc2Oc2ccccc21` (stereo unspecified) came in with a Kb in test [1] above 300 nM.

Regarding `Cc1nccn1CCC(C(=O)O)(c1ccccc1)c1ccccc1`, the Kb came out at 6.95 nM in test [1] and 82.7 nM in test [3]. For the same compound, the Ratio in test [2] is 11.9.

As for `Cc1nccn1CCC(C(=O)N(C)C)(c1ccccc1)c1ccccc1`, the Kb in test [1] came to 258 nM; in test [3] it was 478 nM. Besides, the Ratio in test [2] was 1.85.

On to `Cc1nccn1CCC(C(N)=O)(c1ccccc1)C1CCCCC1` (stereo unspecified), for which the Kb stood at 19 nM in test [1] and 603 nM in test [3]. The Ratio in test [2] was 31.7.

For `Cc1nccn1CCC(C(N)=O)C1c2ccccc2CCc2ccccc21` (stereo unspecified), the Kb in test [1] was 2140 nM.

Consider `Cc1nccn1CCC(C#N)(c1ccccc1)c1ccccc1`, for which the values for the Kb in test [1] and in test [3] were 10.4 nM and 15.5 nM, respectively. For the same compound, in test [2], the Ratio is 1.49.

As for `Cc1nccn1CCC(CO)(c1ccccc1)c1ccccc1`, the Kb is 25.4 nM in test [1] and 83.8 nM in test [3]. In addition, in test [2], the Ratio is 3.3.

Turning to `Cc1nccn1CCC(C(N)=O)(c1ccccc1)c1ccccc1`, the Ratio in test [2] is 13.

With `Cc1nccn1CC(C)C(C(N)=O)(c1ccccc1)c1ccccc1` (stereo unspecified), the Kb in test [1] came to 2.89 nM; in test [3] it was 45.1 nM. For the same compound, the Ratio in test [2] was 15.6.

With `Cc1nccn1CCCCC(C(N)=O)(c1ccccc1)c1ccccc1`, the Kb in test [1] stood at 43.7 nM; in test [3], 148 nM. The Ratio in test [2] was 3.39.

Consider `Cc1nccn1CCC(C(N)=O)(c1ccc(F)cc1)c1ccc(F)cc1`, for which the Kb in test [1] stood at 9.85 nM; in test [3], 161 nM. Besides, the Ratio in test [2] was 16.3.

On to `Cc1nccn1CCC(C)(C(N)=O)c1ccccc1` (stereo unspecified), for which the Kb in test [1] is 1830 nM.

Take `Cc1nccn1CCC(C(N)=O)(c1ccccc1)c1ccccn1` (stereo unspecified): the Kb is 2.86 nM in test [1] and 50.1 nM in test [3]. Besides, the Ratio in test [2] was 17.5.
